Where “and” joins values, the source holds several entries; their conditions need not be identical. Equal entries are not always repeated. Where two headings read alike, the source gives them in different places.
Assays:
[1] = test system: rainbow trout (Oncorhynchus mykiss); conditions: cited from earlier work
Danio rerio = conditions: listed as SDZ; cited from earlier work
[2] = test system: lambari (Astyanax bimaculatus); conditions: for T1/2, half-life time: t1/2=ln2/Ke
Procedure: The feed used in the experiment was purchased commercially and contained 45% protein (GuabiTech, Campinas, SP, Brazil). The amount of ^14C SDZ (Sigma-Aldrich; Saint Louis, MO, USA, Hen- 5154X Riedel) used in the experiment was the one that gave the lowest reading signal in the liquid scintillation spectrometer. Thus, the amount of feed per fish was the equivalent of 1% of body weight, 12 mg·day^−1, totaling 3528 mg of feed contaminated with 5540.38 Bq of radioactive product. The feed was homogenized after the application of the ^14C SDZ to ensure that all of the drug was evenly distributed in the feed. For confirmation, seven 50 mg samples of contaminated feed were used for the liquid scintillation spectrometer reading.
The bioaccumulation and depletion study using lambari was conducted to evaluate how the elimination of the SDZ molecule works after treatment. The experiment was performed based on the guidelines of the Organization for Economic Cooperation and Development standard no. 305 [17] and VICH-FDA [18], with adaptations for the use of radiolabeled molecules.
The lambari fingerlings were acquired from a commercial fish farm, without distinction between male and female. A total of 100 healthy fish were placed in a tank with 200 L of (chlorine-free) water. The acclimatization took place over 15 days, during which the fish were fed three times daily with commercial fish food. The water temperature was maintained at 25 °C ± 1 °C and pH 7. Feeding of the fry was stopped 24 h before the experiment.
The tests were divided into two stages, seven days of exposure and seven days of depuration. After the acclimatization process, 84 fish (approximately 5 cm long and weighing approximately 1.0 to 1.4 g) were used in the experiment. The experiment was conducted in 8 L stainless steel tanks with three replicates and two controls, with 14 fish placed in each tank. The water temperature was maintained at 25 °C ± 1 °C, pH 7, under permanent aeration, with a 12 h photoperiod. Water temperature and pH were analyzed daily.
The exposure phase of the fish to the antibiotic lasted 7 consecutive days, during which the medicated feed was offered three times a day. Control fish were fed uncontaminated feed. For the depletion phase, the remaining lambaris were transferred to clean tanks with 4 L of water and fed uncontaminated feed three times a day. It is worth noting that one fish was randomly selected and sampled during the exposure (days 1, 2, 3, 4, 5, 6, and 7) and depletion (8, 9, 10, 11, 12, 13, and 14) periods of each tank; the selected lambari was euthanized with a 0.2 mg.mL^−1 benzocaine immersion bath and frozen for later analysis.
Fish samples were burned in the Oxidizer OX500 (RJ—Harvey Instrument Corporation, Buffalo, NY, USA) in an oxygen-rich atmosphere, where 10 mL of scintillation liquid (permafluor) was used per sample. Measurement was by liquid scintillation counting (LSC) with a Tri-Carb 2910 TR LSA counter (Perkin Elmer, Waltham, MA, USA).
On day 7 (the last day of bioaccumulation) and day 14 (the last day of depletion), the aquarium water was filtered through filter paper (Whatman 42) to collect background material (metabolic excrement). The analyses of the excreta were conducted in the same way as the procedures described for fish. In addition, water samples from each aquarium were sampled in triplicate at the exposure phase (beginning and end) to determine the radiolabeled molecule, using liquid scintillation counters (LSC) with a Tri-Carb 2910 TR LSA counter (Perkin Elmer).

[3] = test system: sea cucumbers (Apostichopus japonicus); conditions: cited from earlier work
[4] = Table 1, source not given; cited from earlier work
[5] = test system: common carp (Cyprinus carpio); conditions: cited from earlier work

## Nc1ccc(S(=O)(=O)Nc2ncccn2)cc1 [Sulfadiazine, 4-Amino-N-(2-pyrimidinyl)benzenesulfonamide]
[1]
  BCF: 4100 L/kg
  concentration of SDZ in the organisms on the seventh day of depletion: 1.0 × 10^−4 mg·g ^−1
[1]; day 4, SDZ fed in the diet 0.0330 μg·mg^−1
  highest accumulation of SDZ in the organisms: 5.10 × 10 ^−4 mg·g^−1
Danio rerio
  bioaccumulated amount of SDZ: 4.15 Bq and 5.41 Bq
  eliminated amount of SDZ: 3.79 Bq and 5.21 Bq
[2]; after two days of the depletion phase (7–9 days)
  accumulated SDZ eliminated by the organisms: 93.12%
[2]; column Bioaccumulation, model fit
  ke, elimination constant: 0.3956 day⁻¹
[2]; column Depletion, model fit
  A, pre-exponential term: 186.2 ng/g
  ku, absorption constant: 0.6155 mL/g/day
[2]; column Depletion, listed as 14C-sulfadiazine
  T1/2, half-life time: 27.02 h
[2]; column Depletion, listed as SDZ
  T1/2, half-life time: 27.1 h
[2]; day 7 of exposure, medicated feed 2.5 mg·g^−1 three times a day, listed as SDZ
  maximum (peak) concentration of SDZ in fish: 91.7 ng/g and 91.72 ng/g
[2]; day 13, end of experiment
  concentration of SDZ in fish after depletion phase: 0.83 ng/g
[2]; depletion phase period (7–13 days)
  accumulated 14C-SDZ eliminated by the fish: 93.12%
[2]; depletion, abstract
  concentration of SDZ in excreta in the depletion period: 5.96 ng/g
[2]; during exposure (bioaccumulation) and elimination (depletion) phases
  concentration of SDZ in fish relative to the MRL: < 100 ng/g
[2]; elimination 7–13 days
  concentration of SDZ in excreta (sediment), elimination (depletion) phase: 5.9e-06 mg/g
  concentration of SDZ in the water, depletion phase: 0.025 ng/mL
[2]; end of exposure phase, abstract
  concentration of SDZ in excreta after the bioaccumulation period: 363.5 ng/g
[2]; exposure 1–7 days
  concentration of SDZ in excreta (sediment), exposure phase (Bioaccumulation): 0.00036 mg/g
  concentration of SDZ in the water, end of exposure phase (Bioaccumulation): 4.6 ng/mL
[2]; lambari, BCF=Ca/Cw
  bioconcentration factor (BCF): 20 L/kg
[2]; mass balance
  SDZ applied in the diet bioaccumulated in the fish (mass balance): 0.21%
  SDZ applied in the diet remaining in the excreta (mass balance): 0.69%
  SDZ applied in the diet remaining in the water (mass balance): 115%
[3]
  BCF: 2.1 to 891.5 L/kg
[4]
  Log P: −0.09
[5]
  BCF: 2.73 to 165.73 L/kg
